From patent US10849867B2, “Methods and compositions for treating conditions associated with an abnormal inflammatory response” (First Wave Bio, Inc., priority 2015, dated 2020)

What was measured:
[1] = cited from earlier work
[2] = Pharmacokinetics following a single rectal administration to NZW rabbits (Example 11); type: in vivo, New Zealand White KBL Rabbit; details: Treatment B 7.5, NZW rabbits; for concentration at 2 h / concentration at 4 h / concentration at 8 h / concentration at 24 h: male, New Zealand White KBL, rabbit, plasma, other: rectal, 7.5 mg, Niclosamide Plasma Concentrations
Description: Following dosing, blood samples and rectal mucosa was obtained at indicated time points.

Jurkat T cells = test: Mitochondrial transmembrane potential (ΔΨm) in Jurkat T cells, TMRM flow cytometry with oligomycin (Example 1); type: cell-based; details: relative to negative controls
Description: Objective. […] Model. The Jurkat T cell model is commonly used to study the potential effects of compounds on T cells in vitro. This cell line allows investigation of stimuli and mechanisms that regulate T cell mitochondrial function and survival. As T cells, Jurkats have a lymphocyte appearance and replicate in culture in suspension. They contain respiring mitochondria and as such response to mitochondrial uncouplers such as niclosamide may be assessed. Uncoupling is identified and quantified by a detecting a drop in the electrochemical gradient across the mitochondrial inner membrane (ΔΨm) that is not associated with a corresponding increase in oxidative phosphorylation. […] Cell culture. Jurkat T cells were purchased from the American Type Culture Collection (Manassas, Va.) and sub-cultured according to instructions from the supplier. Prior to experiments, cells were cultured in RPMI 1640 containing 10% FBS-HI, 50 units penicillin/mL and 50 μg streptomycin/mL, and maintained in log phase prior to experimental setup. […] TMRM has been described as one of the best fluorescent dyes for dynamic and in situ quantitative measurements because it is rapidly and reversibly taken up by live cells and mitochondria. […] Ratios of the fluorescence intensity of each treated sample to the control sample mean were then calculated as a measure of relative decrease in ΔΨm. […]

TNBS-induced colitis = test: Relapsing TNBS-induced colitis in mice, rectal niclosamide (Example 4); type: in vivo, C57BL/6J female mice; details: relative to vehicle control
Description: Objective. […] Model. The TNBS-induced colitis is a commonly used experimental model for Inflammatory Bowel Disease (IBD). TNBS (trinitrobenzenesulfonic acid) is a chemical administered rectally in the form of an enema to mice or rats in combination with ethanol, which disrupts the mucous barrier, and induces colitis by […] proteins within the gut, causing them to become preferential targets for immune cells. The severity of TNBS-induced colitis depends largely on the dosage applied and the strain of animal used. In chronic, relapsing form of the model, animals are sensitized by escalating, intracolonic doses of TNBS. Disease is monitored in-life by weight loss. Histology of colon specimens is used to determine disease severity at study termination (Gastroenterology. 2003 December; 125(6). 1750-61; Inflamm Bowel Dis. 2006 October; 12(10):995-9.) Mouse strain and housing. C57BL/6J female mice (9-weeks old) are purchased by Jackson and are housed at a temperature ranging from 68 to 74° F. with a diurnal 12 hour light cycle in a specific pathogen-free facility in ventilated cages. Food and water is provided ad libitum. Animals are acclimated to local microbiota for 7 days before the beginning of the experiment. Cell isolation and culture procedures are as noted in Example 2. Conditioning to induce colitis. To perform the studies of relapsing hapten-induced colitis 4 escalating doses of TNBS in 50% ethanol are administered at weekly intervals to lightly anesthetized mice through a 3.5Fr catheter inserted into the rectum. The catheter tip is inserted 4 cm proximal to the anal verge, and 150 μL of fluid is slowly instilled into the colon, after which the mouse is held in a vertical position for 30 seconds per rectum at weekly intervals. […] For the clinical assessment of colitis, animal weight, diarrhea (0=absent; 1=present), rectal prolapse (0=absent; l=present) and presence of blood in the stool (0=absent; l=present) is recorded daily. […] For statistical comparisons, two-way Anova test with Bonferroni correction is calculated with […] software.

O=C(Nc1ccc([N+](=O)[O-])cc1Cl)c1cc(Cl)ccc1O [Niclosamide, 5-chloro-N-(2-chloro-4-nitrophenyl)-2-hydroxybenzamide]
water solubility ([1]; at 20° C.): 5 to 8 µg/mL
solubility in acetone [1]: soluble
solubility in ether, ethanol and chloroform [1]: sparingly soluble
Niclosamide Plasma Concentrations, Mean ([2]; 1 h): 3.9275 ng/mL
concentration at 2 h ([2]; Mean, 2 h): 19.7 ng/mL
concentration at 4 h ([2]; Mean, 4 h): 12 ng/mL
concentration at 8 h ([2]; Mean, 8 h): 4.68 ng/mL
concentration at 24 h ([2]; Mean, 24 h): 1.07 ng/mL
concentration at 2 h ([2]; Subject 666, 2 h): 5.19 ng/mL
concentration at 8 h ([2]; Subject 666, 8 h): 4.73 ng/mL
concentration at 2 h ([2]; Subject 667, 2 h): 3.26 ng/mL
concentration at 8 h ([2]; Subject 667, 8 h): 4.63 ng/mL
concentration at 24 h ([2]; Subject 667, 24 h): 1.07 ng/mL
concentration at 2 h ([2]; Subject 668, 2 h): 50.7 ng/mL
concentration at 4 h ([2]; Subject 668, 4 h): 2.21 ng/mL
change in ΔΨm in Jurkat cells (Jurkat T cells; 1-500 μM, 60 minutes, oligomycin present, TMRM): dose-related decrease
concentrations of niclosamide that significantly decreased ΔΨm (p<0.05) (Jurkat T cells; Jurkat cells): ≥ 5 µM
colitis clinical scores (TNBS-induced colitis; daily, 1-100 mg/kg): dose-related decrease
colitis histologic scores (TNBS-induced colitis; daily, 1-100 mg/kg): dose-related decrease
doses that significantly reduce both clinical and histologic scores (p<0.05) (TNBS-induced colitis): ≥ 3 mg/kg
